Patent US20190053490A1, “USE OF ACTIVE SUBSTANCES FOR CONTROLLING VIRUS INFECTION IN PLANTS” (Bayer CropScience Aktiengesellschaft, priority 2016, published 2019)

Experiments:
[1] = system: Bean pod mottle virus (BPMV-GFP); assay: Antiviral efficacy against BPMV-GFP on soybean plants; format: in vivo; conditions: seven days-post-infection
Experimental: The Bean pod mottle virus (BPMV) is a plant pathogenic virus of the family Comoviridae. This virus infects legumes and more particularly soybean. BPMV genome consists of a bipartite positive-sense single-stranded RNA molecule (+ssRNA). The antiviral efficacy of silencing enhancers was tested with a fluorescently-tagged comoviruss (BPMV-GFP) in order to specifically pinpoint when and where the effect of the molecules is induced during virus primary infection, local or systemic spread.
Soybean plants were sprayed with 100 or 200 ppm of DFPM and emulsifiable concentrate (EC) Premix one day before to infect the plants with the BPMV-GFP virus. Twelve replicates were used for each condition.

[2] = system: PHYTOALEXIN DEFICIENT4 (PAD4) and ENHANCED DISEASE SUSCEPTIBILITY1 (EDS1); conditions: in vivo; cited from earlier work
[3] = system: RNAi pathway (SUL transcript, SUL protein, SUL siRNAs) in SUC-SUL Arabidopsis plants; assay: Molecular confirmation in four-week-old SUC-SUL Arabidopsis plants; format: in vivo; conditions: 200 ppm spray, seven days after treatment
Text: The enhancing effect of DFPM on the RNAi machinery has been validated at the phenotypic and molecular levels. Four-week-old SUC-SUL Arabidopsis plants at rosette stage were sprayed with DFPM at 200 ppm. […] The plant aerial tissues were collected and analyzed molecularly using state-of-the-art methodologies. […] Furthermore, these effects were associated with an over-accumulation of both SUL 21-nt and 24-nt long siRNAs derived from the transgenic SUL.

[4] = system: Turnip crinkle virus (TCV); assay: Antiviral efficacy against TCV; format: in vivo; conditions: 100 ppm
Text: (§1) Similar results were obtained with DFPM with the unrelated viruses Turnip crinkle virus (TCV,) and Cauliflower mosaic virus (CaMV). The TCV belongs to the Tombusviridae family and infects various types of plant species including the common plant models A. thaliana and N. benthamiana. Its genome is another example of +strand RNA virus. The CaMV belongs to the Caulimoviridae family. It infects mostly Brassicaceae such as turnip and cabbage, but is also able to infect A. thaliana. CaMV consists of a double-stranded DNA molecule.

[5] = system: Cauliflower mosaic virus (CaMV); assay: Antiviral efficacy against CaMV; format: in vivo; conditions: 100 ppm
Text: as §1

[6] = system: Turnip mosaic virus (TuMV-GFP); assay: Antiviral efficacy against TuMV-GFP on Arabidopsis; format: in vivo; conditions: 100 or 200 ppm sprayed 3 days before infection
Experimental: The Turnip mosaic virus (TuMV) belongs to the Potyviridae, the largest family of known plant viruses. This virus infects a wide range of plants, in particular Brassicaceae. TuMV genome consists of a positive-sense single-stranded RNA molecule (+ssRNA). The antiviral efficacy of DFMP was tested with a fluorescently-tagged potyvirus (TuMV-GFP) in order to specifically pinpoint when and where the effect of the molecules is induced during virus primary infection, as well as its local or systemic spread.
Arabidopsis plants were sprayed with 100 or 200 ppm of DFMP 3 days before infecting the plants with the TuMV-GFP virus. Virus titers were measured by qPCR and/or virus protein accumulation on Western blot analyses and by counting the number of primary infection foci under UV light in the case of the TuMV-GFP.

[7] = system: RNA silencing pathway (SULPHUR transcript) in SUC-SUL Arabidopsis reporter plants; assay: SUC-SUL Arabidopsis reporter plants, percentage of chlorosis (seedlings); format: in vivo, A. thaliana; conditions: 300 ppm spray, seedlings five days post-germination, assessed 14 days after treatment
Text: The plants' RNA silencing pathway can be easily monitored with certain artificially-created reporter plants called the “SUC-SUL Arabidopsis reporter plants” (Dunoyer et al., Nat. Genet. 37, 1356-1360, 2005). The SUC-SUL Arabidopsis reporter plants are transgenic plants expressing an inverted-repeat (IR) double-stranded RNA designed to target the SULPHUR (SUL) transcript in the vasculature under the control of the SUC2 promoter (Truernit et al., Planta 196(3), 564-570, 1995). Once expressed, the dsRNA is processed into small interfering RNAs directing non-cell autonomous post-transcriptional gene silencing of the SULPHUR transcript, in turn causing vein-centered chlorosis. Since the observed chlorosis results from the silencing of the SULPHUR transcript, an expansion of the chlorosis, observable directly on the plants, is correlated with an intensification of the RNA silencing pathway at the molecular level. […] The effects of the treatments on the SUC-SUL reporter plants were assessed 14 days after treatment under trans-illumination and digitally recorded with a stereo-microscope by measuring the surface and intensity of the chlorotic zone (percentage of chlorosis). […]

[8] = system: ABA-dependent gene expression and ABA-induced stomatal closure; conditions: in vivo; cited from earlier work
[9] = system: Pseudomonas syringae pv tabaci; conditions: cited from earlier work
[10] = system: SA-inducible pathogenesis-related (PR)-1 proteins; conditions: infiltrated leaves; cited from earlier work
[11] = system: tobacco mosaic virus (TMV); conditions: cited from earlier work
[12] = 100 ppm sprayed one day before infection
[13] = 200 ppm sprayed one day before infection

SMILES: S=C(c1ccc(-c2ccc(Cl)c(Cl)c2)o1)N1CCCCC1 [DFPM, [5-(3,4-Dichlorophenyl)Furan-2-yl]-Piperidin-1-ylMethanethione]
- BPMV fluorescence on soybean ([1]; 100 or 200 ppm): clear reduction
- number of plants showing BPMV symptoms ([1]; 100 or 200 ppm): clear reduction
- Average of Percentage of BPMV fluorescence [1, 12]: 31%
- Percentage of plants showing BPMV symptoms [1, 12]: 55%
- Average of Percentage of BPMV fluorescence [1, 13]: 8%
- Percentage of plants showing BPMV symptoms [1, 13]: 10%
- expression of plant defense-related genes including PAD4 and EDS1 [2]: stimulates
- SUL 21-nt and 24-nt long siRNAs ([3]; aerial tissues): over-accumulation
- SUL protein levels (Western blot) ([3]; aerial tissues): reductions in SUL protein levels
- SUL transcript levels (real-time qRT-PCR, FIG. 1) ([3]; aerial tissues): reductions in SUL transcript levels
- RNAi-dependent vein-centered chlorotic phenotype ([3]; vs DMSO only): clear expansion
- virus accumulation on inoculated leaves and systemic tissues (TCV-derived P38 mRNA) [4]: strong reduction
- virus accumulation on inoculated leaves and systemic tissues (CaMV-derived P6 mRNA) [5]: strong reduction
- virus accumulation on inoculated leaves (infection foci, FIG. 2) ([6]; five days post-infection): strong reduction
- accumulation of virus titers ([6]; five days-post-infection): clear reduction
- virus accumulation on systemic tissues (TuMV-derived HcPro mRNA levels, FIG. 3) ([6]; six days post-infection): strong reduction
- percentage of chlorosis [7]: significant increase
- ABA-dependent gene expression in plant [8]: rapidly downregulates
- ABA-induced stomatal closure [8]: inhibits

SMILES: COC(=O)N(OC)c1ccccc1COc1ccn(-c2ccc(Cl)cc2)n1 [Pyraclostrobin]
- resistance of tobacco against infection by Pseudomonas syringae pv tabaci [9]: enhance the resistance
- accumulation of SA-inducible PR-1 proteins [10]: did not cause the accumulation
- TMV resistance in NahG transgenic tobacco plants ([11]; NahG transgenic tobacco unable to accumulate salicylic acid): able to enhance TMV resistance
- resistance of tobacco against infection by TMV ([11]; tobacco): enhance the resistance
